Test results as given in patent publication US9808527B2, “Methods and compositions for treating HIV infections” (priority 2006, dated 2017).

melting point: 90 to 93 °C
SMILES: CC(C)CN(C[C@@H](O)[C@H](Cc1ccccc1)NC(=O)OC1CO[C@H]2OCCC12)S(=O)(=O)c1cccc(O)c1 (stereo partly shown)
